Tested on: bovine viral diarrhea virus (BVDV)
Test: Hypericin-luciferase inactivation of BVDV spiked into human red blood cell concentrate, titration of unwashed and washed samples (CPE, TCID50)
Type: cell-based
Conditions: for Unwashed Titer / Combined VRF (Titer of unwashed RBC control − Titer of washed sample) / Unwashed VRF (Titer of RBC control − Titer of sample) / Washed Titer / Washed VRF (Titer of RBC control − Titer of sample): Table 1 (Example 1), hypericin low=40, high=200 μg/mL, luciferase low=0.8, high=4.0 μM; for Unwashed Titer: RBCC, RT 2 hours in the dark, luciferin 0.08 mM, ATP 0.8 mM
Method: This dose range had not been tested in the previous experiments. Ten different combinations of DMEM (—Ca++, —Mg++), RBCC, virus, hypericin, luciferin, adenosine triphosphate (ATP) and luciferase were prepared to all contain equivalent titers of BVDV calculated to be 6.48 log 10TCID50/mL (logs) based on the titer of the original virus stock. The concentrations of hypericin tested were 40, 80 and 120 μg/mL. Luciferase was tested at 0.16, 0.32 and 0.8 μM. Luciferin and ATP were present at 80 and 800 μM respectively.
The compounds were mixed and incubated at RT for 2 hours in the dark followed by titration of unwashed and washed samples as previously described. Washing rows of wells with dilutions 1 and 2 was performed 2 days post-infection. Final CPEs were read 10 days post-infection.

Structure (SMILES)	Unwashed Titer [log10TCID50/mL]	Combined VRF (Titer of unwashed RBC control − Titer of washed sample) [log TCID50]	Unwashed VRF (Titer of RBC control − Titer of sample) [log TCID50]	Washed Titer [log10TCID50/mL]	Washed VRF (Titer of RBC control − Titer of sample) [log TCID50]	optimal dose of hypericin (with different doses of luciferase, for BVDV) [µg/mL]
Cc1cc(O)c2c(=O)c3c(O)cc(O)c4c5c(O)cc(O)c6c(=O)c7c(O)cc(C)c8c1c2c(c34)c(c78)c65 [HH-LN, hypericin]	3.10	3.87	3.25	2.48	1.50	
Cc1cc(O)c2c(=O)c3c(O)cc(O)c4c5c(O)cc(O)c6c(=O)c7c(O)cc(C)c8c1c2c(c34)c(c78)c65 [HL-LN, hypericin]	3.48	>4.01	2.87	<2.34	>1.64	
Cc1cc(O)c2c(=O)c3c(O)cc(O)c4c5c(O)cc(O)c6c(=O)c7c(O)cc(C)c8c1c2c(c34)c(c78)c65 [hypericin, reference compound]						40

— patent US20140080114A1, “METHODS, KITS AND COMPOSITIONS FOR INACTIVATION OF VIRAL AGENTS IN WHOLE BLOOD AND RED BLOOD CELL CONCENTRATES” (APHIOS CORPORATION, priority 2012, published 2014)
